Values quoted from earlier work, collected in US20150148311A1, “NON-SYSTEMIC TGR5 AGONISTS” (Ardelyx, Inc., priority 2011, published 2015).

System: mice
Details: i.p. injection, in 30 minutes, literature (Li et al. 2011); cited from earlier work

## CC[C@H]1[C@@H](O)[C@@H]2[C@H](C[C@H](O)[C@]3(C)[C@@H]([C@H](C)C[C@H](C)C(=O)O)CC[C@@H]23)[C@@]2(C)CC[C@@H](O)C[C@@H]12 [INT-777]
  increase of gallbladder volume: approximately two-fold
